2 compounds from patent US20070098648A1, “Treating mouth sores caused by dental braces with blobs of hydrophilic gums” (priority 2002, published 2007) can be followed below.

One series deals with mouth sores. In words: experimentation with amoxicillin on conventional patches. In kind it is in vivo. Particulars: conventional amoxicillin powder for oral suspension, mixed into the patch and dried. The text has this: Because use of antibiotics, antibacterials, and other pharmaceutical antimicrobials causes adverse side affects, experimentation with these medications has been limited. […] Conventional amoxicillin powder for preparation of oral suspension was used, which includes sugars and other excipients. The sugars act as a binder to the oral patch. The oral suspension is mixed into the patch or blob and dried. Preferably, the amoxicillin powder is mixed into a stronger than normal liquid before being added to the patch or blob.

Series [1] can be described thus: side effects of glycyrrhetinic acid in the quantities a person could use per day. In kind it is in vivo, human. The settings on record: in the quantities that a person could use per day. The text has this:
For medication to be placed in the patch or blob, any of the above-mentioned antimicrobials, or similar antimicrobials, may be used. […] The preferred quantity of glycyrrhetinic acid in each patch or blob is 5 to 7%.

For `CC1(C)S[C@@H]2[C@H](NC(=O)[C@H](N)c3ccc(O)cc3)C(=O)N2[C@H]1C(=O)O` [amoxicillin], the “effect of amoxicillin on conventional patches” value in the series with mouth sores is “works quite well”. With `CC1(C)[C@@H](O)CC[C@]2(C)[C@H]3C(=O)C=C4[C@@H]5C[C@@](C)(C(=O)O)CC[C@]5(C)CC[C@@]4(C)[C@]3(C)CC[C@@H]12` [glycyrrhetinic acid], the side effects entry in series [1] is on record as “no side affects have been discovered”.
